{
  "source": "patent US20250171434A1",
  "about": "“SEC61 INHIBITORS AND USE THEREOF” (KEZAR LIFE SCIENCES, INC., priority 2022, published 2025)",
  "key": {"[1]": {"test_system": "TNFα-FL/Gaussia Luciferase", "assay": "Dox Induced TNFα-FL-Gluc Assay", "type": "cell-based", "settings": "Table 3; for IC50: Flp-In 293 T-REx cells, 24 hours with doxycycline, read-out: 24 hr Dox Inducible TNFaFLGluc 293FRT/TO: Mean IC50; for 24 hr Dox Inducible TNFaFLGluc 293FRT/TO: TNF/PD1: ratio of IC50s TNF/PD1", "from_the_text": "(§1) Flp-In 293 T-REx™ cells were transfected with pcDNA™5/FRT/TO plasmid inserted with cDNA encoding Gaussia Luciferase fused to the 3′ end of cDNA encoding full length TNFα (amino acids 1-233). Transfected cells were selected for resistance to the selectable markers Hygromycin and Blasticidin to create a stable cell line that contained the TNFα-FL/Gaussia Luciferase cDNA insert whose expression was regulated under the T-REx™ system. The day before assay, cells were trypsinized and plated in 384-well tissue culture plates. The next day, compound dilutions in DMSO/media containing doxycycline were added to the wells and incubated at 37° C., 5% CO2.\n(§2) For chemical structures that include one or more stereoisomers, but are illustrated without indicating stereochemistry, the assay data refers to a mixture of stereoisomers."}, "[2]": {"assay": "Liver Microsome Stability Assay, human", "type": "in vitro ADME", "settings": "human liver microsomes 1.0 mg/mL, 1.0 uM compound, 37° C., 1 mM NADPH", "method_in_brief": "(§3)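 Compound at 1.0 uM (0.4% DMSO) was incubated at 37° C with 1.0 mg/mL liver microsomes in 0.1 M potassium phosphate, with or without 1 mM NADPH. Samples were quenched at 0 and 30 minutes.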"}, "[3]": {"test_system": "IL-2-FL/Gaussia Luciferase", "assay": "Dox Inducible IL2-FL-Gluc Assay", "type": "cell-based", "settings": "for IC50: Flp-In 293 T-REx cells, 24 hours with doxycycline, read-out: 24 hr Dox Inducible IL2FLGluc 293FRT/TO: Mean IC50; for 24 hr Dox Inducible IL2FLGluc 293FRT/TO: IL2/PD1: ratio of IC50s IL2/PD1", "method_in_brief": "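Doxycycline induces an IL-2(1-153)–Gaussia luciferase fusion in a stable Flp-In 293 T-REx line. Compound exposure runs alongside induction at 37° C.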"}, "[4]": {"test_system": "multiple myeloma cell line NCI-H929", "assay": "H929 Cell Viability Assay", "type": "cell-based, human", "settings": "Homo sapiens; NCI-H929 cells, 48 hours, Celltiter-Glo; read-out: 48 hr H929 Viability Celltiter-Glo: Mean EC50", "method_in_brief": "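Viability is scored by CellTiter-Glo luminescence following a 48-hour treatment at 37° C. Data for structures shown without stereochemistry refer to stereoisomer mixtures.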"}, "[5]": {"test_system": "PD1-ss+10aa/Gaussia Luciferase", "assay": "Dox-Induced PD1-ss-Gluc Assay", "type": "cell-based", "settings": "Flp-In 293 T-REx cells, 24 hours with doxycycline, read-out: 24 hr Dox Inducible PD1ssGluc 293FRT/TO: Mean IC50", "method_in_brief": "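The cell line was made by transfecting Flp-In 293 T-REx cells with a PD1 signal sequence+10aa–Gaussia luciferase fusion under T-REx control and selecting with hygromycin and blasticidin. Cells were seeded, and next day compound plus doxycycline was added at 37 °C, 5% CO2.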"}, "[6]": {"test_system": "HER3-ss+4aa/Gaussia Luciferase", "assay": "Dox-Inducible Her3-ss-Gluc Assay", "type": "cell-based", "settings": "Flp-In 293 T-REx cells, 24 hours with doxycycline; Table 3; read-out: 24 hr Dox Inducible Her3(ss + 4)Gluc 293FRT/TO: Mean IC50", "from_the_text": "as §1, with “HER3 signal sequence plus 4 amino” for “full length TNFα (amino”, “(N-[…]-C) (SEQ ID NO: 2).” for “1-233).”, “HER3-ss+4aa/Gaussia” for “TNFα-FL/Gaussia”\nas §2"}, "[7]": {"assay": "Liver Microsome Stability Assay, monkey", "type": "in vitro ADME", "settings": "monkey liver microsomes 1.0 mg/mL, 1.0 uM compound, 37° C., 1 mM NADPH", "method_in_brief": "as §3"}, "[8]": {"assay": "Liver Microsome Stability Assay, mouse", "type": "in vitro ADME", "settings": "mouse liver microsomes 1.0 mg/mL, 1.0 uM compound, 37° C., 1 mM NADPH", "method_in_brief": "as §3"}, "[9]": {"test_system": "multiple myeloma cell line U266B1", "assay": "U266 Cell Viability Assay", "type": "cell-based", "settings": "Homo sapiens, U-266; U266B1 cells, 48 hours, Celltiter-Glo; read-out: 48 hr U266 Viability Celltiter-Glo: Mean EC50", "method_in_brief": "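Viability is measured as luciferase signal from CellTiter-Glo following a 48-hour incubation with compound at 37° C. under 5% CO2. Where structures lack drawn stereochemistry, values refer to stereoisomer mixtures.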"}, "[10]": {"assay": "Liver Microsome Stability Assay, rat", "type": "in vitro ADME", "settings": "rat liver microsomes 1.0 mg/mL, 1.0 uM compound, 37° C., 1 mM NADPH", "method_in_brief": "as §3"}, "[11]": {"test_system": "IL6R-ss+10aa/Gaussia Luciferase", "assay": "Dox-induced IL-6R-ss-Gluc Assay", "type": "cell-based", "settings": "Table 1", "method_in_brief": "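Flp-In 293 T-REx cells stably carrying a doxycycline-inducible IL6R signal sequence+10 aa fused to Gaussia luciferase. Cells plated the day before; compound dilutions added in DMSO/media containing doxycycline and incubated at 37 °C, 5% CO2.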"}, "[12]": {"test_system": "CD47(ss + 10)Gluc", "assay": "Dox-Induced CD47-ss-Gluc Assay", "type": "cell-based", "settings": "Flp-In 293 T-REx cells, 24 hours with doxycycline; Table 1; read-out: 24 hr Dox Inducible CD47(ss + 10)Gluc 293FRT/TO: Mean IC50"}},
  "note": "Like-named read-outs stand apart in the source and are kept apart here.",
  "data": [
    {"smiles": "O=C1CCn2cc(/C=C/c3csc(NC(=O)c4cccn4Cc4ccnc(F)c4)n3)nc2N1", "note": "[Compound B3, (E)-1-((2-fluoropyridin-4-yl)methyl)-N-(4-(2-(7-oxo-5,6,7,8-tetrahydroimidazo[1,2-a]pyrimidin-2-yl)vinyl)thiazol-2-yl)-1H-pyrrole-2-carboxamide]", "values": [
      {"measurement": "IC50", "setting": "[1]", "result": "> 25000", "unit": "nM"},
      {"measurement": "24 hr Dox Inducible TNFaFLGluc 293FRT/TO: TNF/PD1", "setting": "[1]", "result": ">38"},
      {"measurement": "Liver Microsome Stability (Multiple Species): Human - % Remaining after 30 min w/ NADPH (%)", "setting": "[2]", "result": "<1", "unit": "%"},
      {"measurement": "IC50", "setting": "[3]; Table 3", "result": "> 25000", "unit": "nM"},
      {"measurement": "24 hr Dox Inducible IL2FLGluc 293FRT/TO: IL2/PD1", "setting": "[3]; Table 3", "result": ">39"},
      {"measurement": "EC50", "setting": "[4]", "result": "> 25000", "unit": "nM"},
      {"measurement": "IC50", "setting": "[5]; Table 3", "result": 644, "unit": "nM"},
      {"measurement": "IC50", "setting": "[6]", "result": "> 25000", "unit": "nM"},
      {"measurement": "Liver Microsome Stability (Multiple Species): Monkey - % Remaining after 30 min w/ NADPH (%)", "setting": "[7]", "result": 1, "unit": "%"},
      {"measurement": "Liver Microsome Stability (Multiple Species): Mouse - % Remaining after 30 min w/ NADPH (%)", "setting": "[8]", "result": 53, "unit": "%"},
      {"measurement": "EC50", "setting": "[9]", "result": "> 25000", "unit": "nM"},
      {"measurement": "Liver Microsome Stability (Multiple Species): Rat - % Remaining after 30 min w/ NADPH (%)", "setting": "[10]", "result": 19, "unit": "%"}
    ]},
    {"smiles": "O=C(Nc1nc(/C=C/c2ccc(OC(F)F)cn2)cs1)c1cccn1Cc1ccnc(F)c1", "note": "[Compound B4, (E)-N-(4-(2-(5-(difluoromethoxy)pyridin-2-yl)vinyl)thiazol-2-yl)-1-((2-fluoropyridin-4-yl)methyl)-1H-pyrrole-2-carboxamide]", "values": [
      {"measurement": "IC50", "setting": "[1]", "result": 7040, "unit": "nM"},
      {"measurement": "24 hr Dox Inducible TNFaFLGluc 293FRT/TO: TNF/PD1", "setting": "[1]", "result": 544},
      {"measurement": "Liver Microsome Stability (Multiple Species): Human - % Remaining after 30 min w/ NADPH (%)", "setting": "[2]", "result": "<1", "unit": "%"},
      {"measurement": "IC50", "setting": "[3]; Table 3", "result": 1650, "unit": "nM"},
      {"measurement": "24 hr Dox Inducible IL2FLGluc 293FRT/TO: IL2/PD1", "setting": "[3]; Table 3", "result": 130},
      {"measurement": "EC50", "setting": "[4]", "result": 8750, "unit": "nM"},
      {"measurement": "IC50", "setting": "[5]; Table 3", "result": 13, "unit": "nM"},
      {"measurement": "IC50", "setting": "[6]", "result": 816, "unit": "nM"},
      {"measurement": "Liver Microsome Stability (Multiple Species): Monkey - % Remaining after 30 min w/ NADPH (%)", "setting": "[7]", "result": "<1", "unit": "%"},
      {"measurement": "Liver Microsome Stability (Multiple Species): Mouse - % Remaining after 30 min w/ NADPH (%)", "setting": "[8]", "result": 7, "unit": "%"},
      {"measurement": "EC50", "setting": "[9]", "result": 19400, "unit": "nM"},
      {"measurement": "Liver Microsome Stability (Multiple Species): Rat - % Remaining after 30 min w/ NADPH (%)", "setting": "[10]", "result": 1, "unit": "%"}
    ]},
    {"smiles": "O=C(Nc1nc(/C=C/c2ccc(C(F)(F)F)cn2)cs1)c1cccn1Cc1ccnc(F)c1", "note": "[Compound B5, (E)-1-((2-fluoropyridin-4-yl)methyl)-N-(4-(2-(5-(trifluoromethyl)pyridin-2-yl)vinyl)thiazol-2-yl)-1H-pyrrole-2-carboxamide]", "values": [
      {"measurement": "IC50", "setting": "[1]", "result": 3940, "unit": "nM"},
      {"measurement": "24 hr Dox Inducible TNFaFLGluc 293FRT/TO: TNF/PD1", "setting": "[1]", "result": 230},
      {"measurement": "Liver Microsome Stability (Multiple Species): Human - % Remaining after 30 min w/ NADPH (%)", "setting": "[2]", "result": 4, "unit": "%"},
      {"measurement": "IC50", "setting": "[3]; Table 3", "result": 1200, "unit": "nM"},
      {"measurement": "24 hr Dox Inducible IL2FLGluc 293FRT/TO: IL2/PD1", "setting": "[3]; Table 3", "result": 70},
      {"measurement": "EC50", "setting": "[4]", "result": "> 25000", "unit": "nM"},
      {"measurement": "IC50", "setting": "[5]; Table 3", "result": 17, "unit": "nM"},
      {"measurement": "IC50", "setting": "[6]", "result": 553, "unit": "nM"},
      {"measurement": "Liver Microsome Stability (Multiple Species): Monkey - % Remaining after 30 min w/ NADPH (%)", "setting": "[7]", "result": "<1", "unit": "%"},
      {"measurement": "Liver Microsome Stability (Multiple Species): Mouse - % Remaining after 30 min w/ NADPH (%)", "setting": "[8]", "result": 20, "unit": "%"},
      {"measurement": "EC50", "setting": "[9]", "result": "> 25000", "unit": "nM"},
      {"measurement": "Liver Microsome Stability (Multiple Species): Rat - % Remaining after 30 min w/ NADPH (%)", "setting": "[10]", "result": 20, "unit": "%"}
    ]},
    {"smiles": "O=C(Nc1nc(/C=C/c2cccc(F)c2)cs1)c1cccn1Cc1ccnc(F)c1", "note": "[Compound B28, (E)-1-((2-fluoropyridin-4-yl)methyl)-N-(4-(3-fluorostyryl)thiazol-2-yl)-1H-pyrrole-2-carboxamide]", "values": [
      {"measurement": "Liver Microsome Stability (Multiple Species): Human - % Remaining after 30 min w/ NADPH (%)", "setting": "[2]", "result": 70, "unit": "%"},
      {"measurement": "IC50", "setting": "[3]; Table 1", "result": 1090, "unit": "nM"},
      {"measurement": "24 hr Dox Inducible IL2FLGluc 293FRT/TO: IL2/PD1", "setting": "[3]; Table 1", "result": 6.1},
      {"measurement": "EC50", "setting": "[4]", "result": 15000, "unit": "nM"},
      {"measurement": "IC50", "setting": "[5]; Table 1", "result": 172, "unit": "nM"},
      {"measurement": "IC50", "setting": "[11]; Flp-In 293 T-REx cells, 24 hours with doxycycline, read-out: 24hr Dox Inducible IL6R(ss + 10)Gluc 293FRT/TO: Mean IC50", "result": 1200, "unit": "nM"},
      {"measurement": "24hr Dox Inducible IL6R(ss + 10)Gluc 293FRT/TO: IL6R/PD1", "setting": "[11]; ratio of IC50s IL6R/PD1", "result": 7},
      {"measurement": "IC50", "setting": "[12]", "result": 1000, "unit": "nM"},
      {"measurement": "Liver Microsome Stability (Multiple Species): Monkey - % Remaining after 30 min w/ NADPH (%)", "setting": "[7]", "result": 22, "unit": "%"},
      {"measurement": "Liver Microsome Stability (Multiple Species): Mouse - % Remaining after 30 min w/ NADPH (%)", "setting": "[8]", "result": 72, "unit": "%"},
      {"measurement": "EC50", "setting": "[9]", "result": "> 25000", "unit": "nM"},
      {"measurement": "Liver Microsome Stability (Multiple Species): Rat - % Remaining after 30 min w/ NADPH (%)", "setting": "[10]", "result": 39, "unit": "%"}
    ]}
  ]
}
